Measured values as given in patent US10071042B2, “External dermatological agent for anti-ageing” (Hayashibara Co., Ltd., priority 2014, dated 2018).
Where two headings read alike, the source gives them in different places. Marks after values point to notes of the source that are not given here.

Key:
[1] = Photostability under fluorescent lamp, HPLC residual percentage (Experiment 10); assay type: physicochemical; settings: fluorescent lamp about 4,000 lux, 28° C.
Procedure: To 25 mg of each of the test substances in Table 13 was added each of Mcllvain buffers adjusted to different pHs to give a total volume of 50 mL and distributed to transparent glass screw bottles (5 mL) with plastic screw caps equal to the number of the test substances by 2.0 mL. Under a fluorescent lamp with about 4,000 lux at 28° C., the glass screw bottles were allowed to lay along. Sodium adenosine N1-oxide 5′-phosphate and 5′-glucosyl adenosine N1-oxide were respectively analyzed on HPLC at the initiation of the test and at eight weeks after initiating the experiment, and at the initiation of the test and at two weeks intervals up to eight weeks after the initiation, followed by taking out one of the bottles for HPLC analysis. The analysis was repeated three times and the average residual percentage of each test substance was calculated based on the area ratio against the peak area for each test substance upon HPLC chromatogram at the initiation of the experiment. […] Equation: Residual percentage (%) of test substance=[(Average peak area after a prescribed time lapse at respective pHs for each test substance)/(Average peak area at the initiation of experiment at respective pHs for each test substance)]×100

3T3 = assay: TG432: In vitro 3T3 NRU Phototoxicity Test; assay type: cell-based
Excerpt: Based on this, external dermal agent containing any of adenosine N1-oxide 5′-phosphate, analogues thereof, and their salts can be said to be safe.

elastin = assay: Elastin production of normal human dermal fibroblasts, colorimetric kit (Experiment 4); assay type: cell-based; settings: 2 days, control = 100%
Procedure: Normal human dermal fibroblasts (NHDF), which had been suspended in a Dulbecco's Modified Eagle Medium supplemented with 10% fetal calf serum to give a cell concentration of 3×10^5 cells/mL, were placed in 24-well plates by 0.5 mL/well and cultured for one day. The cultured cells were washed with Dulbecco's phosphate buffered saline and cultured for another two days in a Dulbecco's Modified Eagle Medium, supplemented with any one of the test substances in Table 5 at respective concentrations shown in the table, to induce elastin synthesis. Thereafter, each culture supernatant was collected, and the remaining cells were washed with one milliliter of Dulbecco's phosphate buffered saline, added with 0.1 mL of 0.25% trypsin and ethylenediaminetetraacetate, followed by incubation at 37° C. for two minutes to detach the cells from the plates. A half milliliter of Dulbecco's phosphate buffered saline was added to each plate, and the resulting cell suspensions were collected in a 1.5-mL tube which was then subjected to centrifugation (3,000×g for five minutes) to collect the cells. Elastin was quantified with a colorimetric determination kit commercialized by Biocolor Ltd., […]. The previously collected supernatant was used to suspend the collected cells, to which was then added 0.16 mL of 1 M oxalic acid, a reagent affixed to the kit, and incubated at 100° C. for one hour to solubilize elastin. To the solubilized elastin placed in a container was added 0.66 mL of an elastin precipitant as a reagent affixed to the kit, mixed for 15 min while repeatedly reversing the container, and centrifuged at 10,000×g for 10 min to precipitate proteins. A half milliliter of a dye, as a reagent affixed to the kit, was added to the resulting precipitate, followed by repeatedly reversing the container for 90 min and centrifuged at 10,000×g for 10 min to collect sediments bound with the dye. Thereafter, the collected sediments were added with 0.25 mL of a dye separator as a reagent affixed to the kit, and mixed for one hour while repeatedly reversing a container with the resulting mixture, followed by determining the absorbance of the resulting mixture at a wavelength of 490 nm and calculating the amount of elastin per well. A calibration curve was generated with an accessory for the kit. A control system was provided by similarly treating normal human dermal fibroblasts (NHDF) without adding any test substance and determined for its absorbance at a wavelength of 490 nm. Regarding the absorbance as 100%, the production level of elastin of each test substance was comparatively evaluated based on the following equation. Equation: Production level of elastin (relative value (%))=[(Absorbance of a sample with any one of test substances)/(Absorbance of control)]×100
(§1) The experiment was repeated three times, and the data was compared to that of control with the Dunnett's multiple comparisons test. The symbol “*” means a level of significance of p<0.01.

[2] = test system: normal human dermal fibroblasts (NHDF); assay: Number of cells, Alamar Blue (Experiment 4); assay type: cell-based; settings: control = 100%
Procedure: To confirm cell proliferation under the above conditions tested, normal human dermal fibroblasts (NHDF), which had been suspended in a Dulbecco's Modified Eagle Medium supplemented with 10% fetal calf serum to give a cell concentration of 2.5×10^5 cells/mL, were placed in 96-well microplates by 0.1 mL/well and cultured for one day. The resulting cells were washed with Dulbecco's phosphate buffered saline and cultured for another two days in a Dulbecco's Modified Eagle Medium supplemented with any one of the test substances in Table 5. The culture supernatants were removed from the microplates, to which were then added 0.2 mL/well of a dilution of “Alamar Blue” diluted with the same culture medium as used in the above by 10 folds to react with the cells at 37° C. for two hours, followed by measuring the fluorescent intensity of the cells at an excitation wavelength of 544 nm and a fluorescent wavelength of 590 nm and obtaining the variation of the number of cells with the addition of any one of the test substances based on the fluorescent intensity of a control system, which had been treated similarly as in the above except for not adding any of the test substances, being regarded as 100%.
as §1

[3] = test system: normal human epidermal keratinocytes; assay: Number of cells, methylene blue (Experiment 6); assay type: cell-based; settings: for Number of cells (%): control = 100%
Procedure: The number of proliferated cells was determined with methylene blue and regarded as 100% for use in calculating the variation of cells with any one of the test substances.

[4] = pH 4 to 5, at the initiation of experiment
[5] = pH 6 to 7, at the initiation of experiment
[6] = pH 8 to 9, at the initiation of experiment

Compound	Residual percentage (%) [1, 4] [%]	Residual percentage (%) ([1]; pH 4 to 5, eight weeks)	Residual percentage (%) ([1]; pH 4 to 5, four weeks)	Residual percentage (%) ([1]; pH 4 to 5, six weeks)	Residual percentage (%) ([1]; pH 4 to 5, two weeks)	Residual percentage (%) [1, 5] [%]	Residual percentage (%) ([1]; pH 6 to 7, eight weeks)	Residual percentage (%) ([1]; pH 6 to 7, four weeks)	Residual percentage (%) ([1]; pH 6 to 7, six weeks)	Residual percentage (%) ([1]; pH 6 to 7, two weeks)	Residual percentage (%) [1, 6] [%]	Residual percentage (%) ([1]; pH 8 to 9, eight weeks)	Residual percentage (%) ([1]; pH 8 to 9, four weeks)	Residual percentage (%) ([1]; pH 8 to 9, six weeks)	Residual percentage (%) ([1]; pH 8 to 9, two weeks)	optical toxicity (3T3)	Production level of elastin (%) (elastin; 10 μM)	Number of cells (%) ([2]; 10 μM)	Production level of elastin (%) (elastin; 1 μM)	Production level of elastin (%) (elastin; 4 μM)	further results
5′-α-glucosyl adenosine N1-oxide [5′-α-Glucosyladenosine N1-oxide]	100.0	9.8	27.3	9.7	51.7	100.0	34.3	57.7	40.8	79.1	100.0	24.0	47.8	35.4	70.7	no optical toxicity					Residual percentage (%) ([1]; pH 4 to 5, eight weeks, listed as 5′-glucosyl adenosine N1-oxide): about 10%
Nc1ncnc2c1ncn2[C@@H]1O[C@H](COP(=O)(O)O)[C@@H](O)[C@H]1O [Adenosine 5′-phosphate, reference compound]																	114.4%	101.0			Production level of elastin (%) (elastin; 40 μM): 117.2%; Production level of elastin (%) (elastin; 100 μM): 120.0* %; Number of cells (%) ([2]; 40 μM): 102.0%; Number of cells (%) ([2]; 100 μM): 99.0%
Nc1c2ncn([C@@H]3O[C@H](CO)[C@@H](O)[C@H]3O)c2nc[n+]1[O-] [Adenosine N1-oxide, adenosine N1-oxide]	100.0	24.6	47.2	25.2	68.8	100.0	66.2	81.6	71.3	90.6	100.0	63.1	77.2	68.2	83.7	no optical toxicity	118.4* %	94.0	108.8	114.8	Production level of elastin (%) (elastin; 10 μM, listed as adenosine N1-oxide): about 120%; Number of cells (%) ([2]; 1 μM): 99.0%; Number of cells (%) ([2]; 4 μM): 98.0%; Residual percentage (%) ([1]; pH 4 to 5, eight weeks, listed as adenosine N1-oxide): about 25%
Nc1c2ncn([C@@H]3O[C@H](COP(=O)([O-])O)[C@@H](O)[C@H]3O)c2nc[n+]1[O-].[Na+] [Sodium adenosine N1-oxide 5′-phosphate, sodium adenosine N1-oxide 5′-phosphate]	100.0	93.0				100.0	88.8				100.0	96.9					121.2* %	101.0	98.0	105.2	Production level of elastin (%) (elastin; 10 μM, listed as sodium adenosine N1-oxide 5′-phosphate): about 120%; Number of cells (%) ([2]; 1 μM): 104.0%; Number of cells (%) ([2]; 4 μM): 104.0%; Number of cells (%) ([3]; 10 μM): 111.4%; Number of cells (%) ([3]; 20 μM): 103.6%; Number of cells (%) ([3]; 50 μM): 100.6%; influence on cell proliferation ([3]; 10 to 50 μM): No influence on cell proliferation; optical toxicity (3T3; OECD test guideline TG432): no optical toxicity
3′-α-glucosyl adenosine N1-oxide [3′-α-Glucosyladenosine N1-oxide]																no optical toxicity					
